# Measured values reported in US8178678B2, “Bis-quaternary ammonium salts and methods for modulating neuronal nicotinic acetylcholine receptors” (University of Kentucky Research Foundation, priority 2006, dated 2012).
# Assays:
# [1] = biological target: T1, Rat Striatal Nicotinic Receptors ([^3H]MLA binding sites; α7) (Rattus norvegicus, UniProt Q05941); assay: Inhibition of [^3H]MLA (methyllycaconitine) binding; conditions: [^3H]MLA, nonspecific S-nicotine, rat brain membranes; for Ki: full concentration effect, read-out: [^3H]MLA binding, Ki; for inhibition at 0.1 µM: read-out: [^3H]MLA binding, % inhibition
# T1 construct: Whole brain, excluding cortex and cerebellum, was homogenized in 20 vol of ice-cold buffer; from tissue; host or cells: rat brain membranes (whole brain excluding cortex and cerebellum)
# T1 sequence (Q05941 23-502): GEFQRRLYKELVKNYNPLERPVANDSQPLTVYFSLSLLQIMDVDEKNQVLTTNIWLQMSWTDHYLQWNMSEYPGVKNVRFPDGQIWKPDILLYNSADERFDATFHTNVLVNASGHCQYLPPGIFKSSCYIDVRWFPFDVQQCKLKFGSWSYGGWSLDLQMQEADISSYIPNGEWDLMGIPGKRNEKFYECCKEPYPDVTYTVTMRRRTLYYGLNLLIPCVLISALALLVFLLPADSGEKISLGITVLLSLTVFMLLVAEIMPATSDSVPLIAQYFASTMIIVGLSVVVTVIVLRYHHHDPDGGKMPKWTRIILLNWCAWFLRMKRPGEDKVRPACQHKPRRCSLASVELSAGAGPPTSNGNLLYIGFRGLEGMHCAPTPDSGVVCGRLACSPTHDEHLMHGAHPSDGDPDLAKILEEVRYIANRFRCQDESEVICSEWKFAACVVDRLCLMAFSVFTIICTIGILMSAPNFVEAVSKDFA
# Outline: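 Rat brain membranes were washed by repeated centrifugation at 25,000 g, with a 10 min incubation at 37° C. in between. Samples of 250 μl, containing 100-140 μg of membrane protein, 3 nM [^3H]-methyllycaconitine and test analog in 50 mM Tris assay buffer, were incubated in 96-well plates for 60 min at room temperature. Nonspecific binding was defined with 10 μM S-nicotine. Bound radioactivity was collected on polyethylenimine-soaked GF/B filter plates and counted on a TopCount.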
# [2] = biological target: T2, Rat Striatal Nicotinic Receptors ([^3H]NIC binding sites; α4β2) (Rattus norvegicus, UniProt P09483+P12390); assay: Inhibition of [^3H]NIC binding; conditions: full concentration effect; 3 nM [^3H]NIC; nonspecific 10 μM cytisine; rat brain membranes; read-out: [^3H]NIC binding, Ki
# T2 construct: Whole brain, excluding cortex and cerebellum, was homogenized in 20 vol of ice-cold buffer; from tissue; host or cells: rat brain membranes (whole brain excluding cortex and cerebellum)
# T2 sequence (P09483 31-630): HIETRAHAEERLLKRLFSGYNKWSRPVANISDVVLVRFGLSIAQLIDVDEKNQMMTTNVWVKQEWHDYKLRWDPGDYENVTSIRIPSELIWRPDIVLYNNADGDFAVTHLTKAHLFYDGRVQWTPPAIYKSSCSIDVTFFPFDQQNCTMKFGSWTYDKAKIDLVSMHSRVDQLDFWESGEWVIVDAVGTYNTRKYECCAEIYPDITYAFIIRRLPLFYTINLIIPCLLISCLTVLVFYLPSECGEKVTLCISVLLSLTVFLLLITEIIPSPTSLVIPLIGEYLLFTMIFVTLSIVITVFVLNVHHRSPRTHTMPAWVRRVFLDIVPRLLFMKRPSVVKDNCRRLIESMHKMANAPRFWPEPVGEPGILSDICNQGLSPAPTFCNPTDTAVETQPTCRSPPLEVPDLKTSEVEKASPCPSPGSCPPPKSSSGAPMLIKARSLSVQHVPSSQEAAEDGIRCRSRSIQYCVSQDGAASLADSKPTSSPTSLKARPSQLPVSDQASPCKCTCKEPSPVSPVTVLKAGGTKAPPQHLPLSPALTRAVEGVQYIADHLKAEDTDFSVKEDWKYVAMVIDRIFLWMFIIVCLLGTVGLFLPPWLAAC
# T2 sequence (P12390 25-500): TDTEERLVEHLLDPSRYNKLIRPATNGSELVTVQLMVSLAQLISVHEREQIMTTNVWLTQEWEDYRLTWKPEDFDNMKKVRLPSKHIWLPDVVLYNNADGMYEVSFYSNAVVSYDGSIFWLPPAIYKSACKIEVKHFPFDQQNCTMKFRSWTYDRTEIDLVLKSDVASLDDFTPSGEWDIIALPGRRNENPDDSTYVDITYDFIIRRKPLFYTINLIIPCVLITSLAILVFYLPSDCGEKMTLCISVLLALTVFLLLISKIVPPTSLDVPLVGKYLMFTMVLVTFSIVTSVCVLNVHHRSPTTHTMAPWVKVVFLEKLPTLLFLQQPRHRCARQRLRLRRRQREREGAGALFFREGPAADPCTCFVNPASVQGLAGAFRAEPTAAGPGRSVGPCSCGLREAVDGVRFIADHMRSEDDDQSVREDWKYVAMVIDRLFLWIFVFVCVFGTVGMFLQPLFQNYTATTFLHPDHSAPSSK
# [3] = tested on: nicotinic receptors mediating S-nicotine-evoked [^3H]DA release in rat striatal slices; assay: Inhibition of S-nicotine-evoked [^3H]dopamine release from superfused rat striatal slices; type: cell-based; conditions: 100 nM analog superfused 60 min before NIC 10 μM, rat striatal slices; for inhibition at 0.1 µM: 1 h, read-out: [^3H]DA release, % inhibition of S-nicotine-evoked release
# Method: Rat striatal slices (500 μm thickness, 6-8 mg wet weight) were incubated for 30 minutes in Krebs buffer (118 mM NaCl, 4.7 mM KCl, 1.2 mM MgCl2, 1.0 mM NaH2PO4, 1.3 mM CaCl2, 11.1 mM glucose, 25 mM NaHCO3, 0.11 mM L-ascorbic acid, and 0.004 mM disodium EDTA; pH 7.4, and saturated with 95% O2/5% CO2) in a metabolic shaker at 34° C. Slices were rinsed with 15 mL of fresh buffer and incubated for an additional 30 minutes in fresh buffer containing 0.1 μM [^3H]dopamine (DA; 6 slices/3 mL). Subsequently, slices were rinsed with 15 mL of fresh buffer and transferred to a glass superfusion chamber. Slices were superfused (1.0 mL/min) for 60 minutes with Krebs buffer containing nomifensine (10 μM) and pargyline (10 μM) and maintained at 34° C., pH 7.4, with continual aeration (95% O2/5% CO2). Two five minute samples (5 mL each) were collected to determine basal outflow of [^3H]DA. The bis-quaternary ammonium analogs were added to the superfusion buffer after the collection of the second sample and remained in the buffer until 12 consecutive five minute samples were collected. Subsequently, S-nicotine (NIC; 10 μM) was added to the buffer and an additional 12 consecutive five minute samples were collected. At the end of the experiment, each slice was solubilized and the [^3H] content of the tissue determined.
# Radioactivity in the superfusate and tissue samples was determined by liquid scintillation spectroscopy. Fractional release for tritium collected in each sample was divided by the total tritium present in the tissue at the time of sample collection and was expressed as a percentage of total tritium. Basal [^3H]outflow was calculated from the average of the tritium collected in the two five minute samples just before addition of the quaternary analog. The sum of the increase in collected tritium resulting from either exposure to the test compound or exposure to S-nicotine in the absence and presence of the test compound equaled total [^3H]overflow. [^3H]Overflow was calculated by subtracting the [^3H]outflow during an equivalent period of prestimulation from the values in samples collected during and after drug exposure. Inasmuch as the radiolabelled compounds were not separated and identified, the tritium collected in superfusate is referred to as either [3H]outflow or [^3H]overflow, rather than as [^3H]DA. [^3H]Overflow primarily represents [^3H]DA in the presence of nomifensine and pargyline in the superfusion buffer.
# The bis-quaternary ammonium analogs were also evaluated for their ability to inhibit NIC evoked [^3H]DA release. In these experiments, the striatal slices were superfused for 60 minutes with 100 nM concentration of the quaternary analogs prior to NIC (10 μM) exposure. Antagonist activity was evaluated by comparing the NIC-evoked [^3 H]overflow in the absence and presence of the analogs. The relative order of potency of the quaternary analogs for inhibition of NIC-evoked [^3H]DA release from rat striatal slices is illustrated in Table 1.
# ^aData are % inhibition at 100 nM concentration of the bis-quaternary ammonium analogs for at least 1-3 independent experiments; with the exception of when a Ki value in μM is provided, in which case a full concentration effect was evaluated. Specific binding in the [^3H]NIC binding assay is calculated as the difference between the total binding of 3 nM [^3H]NIC and nonspecific binding in the presence of 10 μM cold cytisine. Specific binding for the [^3H]MLA binding assay is calculated as the difference between the total binding of […] [^3H]MLA to the receptors alone and its nonspecific binding in the presence of […] cold S-nicotine. Analog-induced inhibition of S-nicotine-evoked [^3H]DA release is calculated as a percent of that in the absence of the bis-quaternary ammonium analog.
# [4] = biological target: T2, Rat Striatal Nicotinic Receptors ([^3H]NIC binding sites; α4β2); assay: Inhibition of [^3H]NIC binding; conditions: 100 nM analog, 3 nM [^3H]NIC, nonspecific 10 μM cytisine, rat brain membranes; for inhibition at 0.1 µM: 1 h
Compound,Ki [1],Ki [2],inhibition at 0.1 µM [3],inhibition at 0.1 µM ([1]; 100 nM analog),inhibition at 0.1 µM [4],"[^3H]DA release, % inhibition of S-nicotine-evoked release [3]","[^3H]MLA binding, % inhibition ([1]; 100 nM analog)","[^3H]NIC binding, % inhibition [4]"
"C(/C=C\CCCC[n+]1cccc2c1CCCC2)=C/CCCC[n+]1cccc2c1CCCC2 [Example 5, cis-cis-N,N′-(dodeca-5,7-diene-1,12-diyl)-bis-(5,6,7,8-tetrahydro-quinolinium)dibromide]",7.64 µM,3.63 µM,,,,,,
"C(/C=C\CCCC[n+]1ccc2c(c1)CCCC2)=C/CCCC[n+]1ccc2c(c1)CCCC2 [Example 6, cis-cis-N,N′-(dodeca-5,7-diene-1,12-diyl)-bis-(5,6,7,8-tetrahydro-isoquinolinium)dibromide]",3 µM,5.84 µM,,,,,,
"c1cc2c([n+](CCCCc3ccc(CCCC[n+]4cccc5c4CCCC5)cc3)c1)CCCC2 [Example 15, N,N′-[1,4-phenylenedi-(4-butanyl)]-bis-(5,6,7,8-tetrahydroquinolinium)dibromide]",7.68 µM,12 µM,,,,,,
"c1cc(CCCC[n+]2ccc3c(c2)CCCC3)ccc1CCCC[n+]1ccc2c(c1)CCCC2 [Example 16, N,N′-[1,4-phenylenedi-(4-butanyl)]-bis-(5,6,7,8-tetrahydroisoquinolinium)dibromide]",15.3 µM,> 100 µM,,,,,,
"C(#Cc1cccc(C#CCCC[n+]2ccc3ccccc3c2)c1)CCC[n+]1ccc2ccccc2c1 [Example 55, 1,3-bis-(5-isoquinolinium-pent-1-ynyl)-benzene dibromide]",,,31%,5.6%,7.4%,,,
"CN1CCC[C@@H]1c1ccc[n+](CCCC#Cc2cccc(C#CCCC[n+]3cccc([C@H]4CCCN4C)c3)c2)c1 [Example 56, 1,3-bis-[5(2′-S-nicotinium-pent-1-ynyl)]benzene dibromide]",,,18%,2.6%,3.1%,,,
"C(#Cc1cccc(C#CCCC[n+]2cccc(-c3ccccc3)c2)c1)CCC[n+]1cccc(-c2ccccc2)c1 [Example 58, 1,3-bis-[5-(3-phenyl-pyridinium)-pent-1-ynyl]-benzene dibromide]",,,8%,11%,3.4%,,,
"C(#Cc1cccc(C#CCCC[n+]2ccccc2)c1)CCC[n+]1ccccc1 [Example 59, 1,3-bis-(5-pyridinium-pent-1-ynyl)-benzene dibromide]",,,12%,4.4%,3.6%,,,
"Cc1cccc[n+]1CCCCCc1cccc(CCCCC[n+]2ccccc2C)c1 [Example 62, 1,3-bis-[5-(2-methyl-pyridinium)-pentyl]-benzene dibromide]",,,62%,0%,7.2%,,,
"Cc1ccc[n+](CCCCCc2cccc(CCCCC[n+]3cccc(C)c3)c2)c1 [Example 63, 1,3-bis-[5-(3-methyl-pyridinium)-pentyl]-benzene dibromide]",,,45%,6.24%,3.5%,,,
"Cc1cc[n+](CCCCCc2cccc(CCCCC[n+]3ccc(C)cc3)c2)cc1 [Example 64, 1,3-bis-[5-(4-methyl-pyridinium)-pentyl]-benzene dibromide]",,,27%,3.5%,4.6%,,,
"Cc1cc[n+](CCCCCc2cccc(CCCCC[n+]3ccc(C)cc3C)c2)c(C)c1 [Example 65, 1,3-bis-[5-(2,4-dimethyl-pyridinium)-pentyl]-benzene dibromide]",,,26%,5.6%,0.5%,,,
"Cc1cc[n+](CCCCCc2cccc(CCCCC[n+]3ccc(C)c(C)c3)c2)cc1C [Example 66, 1,3-bis-[5-(3,4dimethyl-pyridinium)-pentyl]-benzene dibromide]",,,35%,7%,10.5%,,,
"Cc1cc(C)c[n+](CCCCCc2cccc(CCCCC[n+]3cc(C)cc(C)c3)c2)c1 [Example 67, 1,3-bis-[5-(3,5-dimethyl-pyridinium)-pentyl]-benzene dibromide]",,,34%,1.4%,4.8%,,,
"c1cc(CCCCC[n+]2cccc3ccccc32)cc(CCCCC[n+]2cccc3ccccc32)c1 [Example 68, 1,3-bis-(5-quinolinium-pentyl)-benzene dibromide]",,,16%,14%,8.3%,,,
"c1cc(CCCCC[n+]2ccc3ccccc3c2)cc(CCCCC[n+]2ccc3ccccc3c2)c1 [Example 69, 1,3-bis-(5-isoquinolinium-pentyl)-benzene dibromide]",,,0%,5.2%,8.8%,,,
"Cc1ccc[n+](CCCc2ccc(-c3ccc(CCC[n+]4cccc(C)c4)cc3)cc2)c1 [Example 78, N,N′-[(1,1′-biphenyl)-4,4′-di-(3-propanyl)]-bis-(3-methylpyridinium)dibromide]",,,44%,5.5%,0%,,,
"Cc1ccc[n+](CCOCCOCCOCC[n+]2cccc(C)c2)c1 [Example 82, N,N′-{2,2′-[oxybis-(2,1-ethandiyloxy)]bis-ethyl}-bis(3-methylpyridinium)dichloride]",,,58%,13%,17%,,,
"Cc1cc[n+](CCOCCOCCOCC[n+]2ccc(C)cc2)cc1 [Example 83, N,N′-{2,2′-[oxybis-(2,1-ethandiyloxy)]bis-ethyl}-bis(4-methylpyridinium)dichloride]",,,53%,7%,15%,,,
"Cc1cc[n+](CCC#Cc2ccc(C#CCC[n+]3ccc(C)c(C)c3)cc2)cc1C [Example 100, N,N′-[(1,4-phenylene)-bis-(4-butynyl)]-bis-(3,4-dimethyl-pyridinium)dibromide]",,,31%,0%,3%,,,
"Cc1cc(C)c[n+](CCC#Cc2ccc(C#CCC[n+]3cc(C)cc(C)c3)cc2)c1 [Example 101, N,N′-[(1,4-phenylene)-bis-(4-butynyl)]-bis-(3,5-dimethyl-pyridinium)dibromide]",,,14%,0%,0%,,,
"N,N′-[(1,1′-biphenyl)-4,4′-di-(3-propanyl)]-bis-[3-(2′-S-1-methyl-pyrrolidin-2-yl)-pyridinium]dibromide [Example 70]",,,,,,8%,11%,12%
